Where “and” joins values, the source holds several entries; their conditions need not be identical. Equal entries are not always repeated.
Assays:
Type in all cases: in vivo, human
Change in body weight [1] = details: for Weight Change (SE) Week 14: 2 weeks after treatment stopped; for Weight Change (SE) Week 8: change from Day 1
[2] = Mid-thigh CT scan: thigh adipose tissue (TAT)
Method: All CT scans were performed on GE Sytec 4000 CT scanners or an equivalent scanner.
An initial Thigh Scan was performed using the following procedure: • 1. The subject lay on the CT bed with his or her feet toward the scanner. The subject's knees were at least 3 inches above the extended bed joint, not over the joint. • 2. The legs were positioned so they were not touching each other and the hands were crossed over the abdomen so as not to interfere with the scan. • 3. The CT technician then positioned the bed. The entire femur was visualized in the initial topogram. • 4. The technician then made a topogram of the entire femur of the non-dominant leg and recorded this picture on the film. The length of the femur was then measured and recorded and this measurement was used to identify the midpoint of the femur. This midpoint was used to assess the cross section of the thigh. • 5. The technician took a 10-mm slice at the precise level of the mid-point of the femur with the following settings for a GE Sytec 4000 scanner: • kV=100 • MA=170 • 1 sec • DFOV=21 • Algorithm=standard
Technicians were advised that although settings for some scanners may be slightly different, the settings must be standardized so as to give the greatest definition for fat and lean tissue. Once the technician determined the appropriate setting for a scanner, he or she was advised to use the same settings for every (slice) scan. The topograms could be at different settings as the topograms would not be imaged. • 6. The entire cross section of the nondominant thigh was visualized on the screen. If the entire thigh was not visualized on the screen, the picture was reconfigured with a larger display field of view. Once the entire thigh was visualized on the screen, the technician downloaded the cross section to the disk. The disk was checked to make sure the image was actually there, and then the picture was recorded on film. • 7. The exam number, series number, and image number of the slice was then recorded. • 8. The technician sent the film to the printer at this point. The film was set at four pictures per film, and the film had for the femur the recorded total distance, the midpoint, and the slice of the thigh.
The same leg (left) was used as in the initial scan. A topogram of the thigh was taken, and a measurement made down the femur to the midpoint of the femur using the same distance as was used in the baseline thigh scan. A 10-mm cross section scan was taken at the midpoint using the identical settings as were used for the baseline scan. A record was made of the exam number, series number, and image number of the slice.
Slices were downloaded onto the scanner and then retrieved via optical disk (or the Internet if possible) to a computer for analysis. During analysis, the area of intra-abdominal and subcutaneous fat as well as oblique, psoas, quadratum laborum, and sacrospinalis muscles were measured. The images were digitized by optical density to separate bone, muscle, and fat compartments using a modified version of the NIH IMAGE program. Pixel units were converted to area measurements using an internal calibration standard. Digitized images were analyzed in a blinded fashion. The coefficient of variation of repeated analysis of a single scan is <1.5%.

hemoglobin A1c (HbA1c) = assay: Glucose control: change from baseline in HbA1c, double-blind placebo-controlled study in type II DM; details: for Hemoglobin A1c Change % from baseline, Week 4, Mean (SD): type II DM subjects; for Hemoglobin A1c Endpoint Change % from baseline, Mean (SD): last available measurement carried forward
Method: Accordingly, subjects with type II DM were treated with a combination of rhIGF-I and glyburide, or with rhIGF-I or glyburide alone, to ascertain the potential benefits of the addition of rh1GF-I to glyburide therapy on glycemic control, incidence of hypoglycemia, and weight gain. […] The use of any additional orally administered drug or insulin to treat hyperglycemia during the pretreatment and treatment periods was prohibited. […] Randomization was stratified by gender, by prior oral […] agent therapy, and by HbA1c level at day 14.

Change in body weight [3] = details: for Weight Change (SE) Week 12: change from Day 1
From the text: The efficacy endpoints were the change in glucose control as assessed by the change from baseline (day 1 to week 12) in hemoglobin A1c (HbA1c) levels, and changes from baseline (day 1 to week 12) in fasting blood glucose (BG), body weight, and visceral and mid-thigh fat.
The primary efficacy variable for the assessment of treatment effect on glucose control at Week 12 was the change from baseline (day 1) in HbA1c levels. Secondary efficacy variables assessing glucose control at Week 12 were the change from baseline (day 1) for each of the following: fasting blood glucose concentration, weight, and visceral and mid-thigh fat.
Secondary efficacy variables assessing glucose control at Week 12 were the change from baseline (Day 1) for each of the following: weight, and visceral and mid-thigh fat.

Change in BMI = details: for BMI Change (SE) Wk 14: 2 weeks after treatment stopped
From the text: The degree of obesity in humans is commonly assessed by calculating the body mass index or BMI. The BMI is essentially correcting body weight for height. Obviously a very tall person will likely weigh more than a person with short stature so this correction for height makes BMI a better gauge of the degree of obesity than uncorrected body weight. Table 6 gives the BMI data for the subjects treated with IGF-I. At baseline the subjects had average BMIs of over 30. Overweight is defined as a BMI of over 25 and obesity is defined as a BMI of over 30. […] Treatment with IGF-I reduced BMI and this effect was maintained until week 14, which was 2 weeks after treatment with IGF-I was stopped. In subjects treated with 20 micrograms of IGF-I, BMI fell by 1.0 kg/m^2 at 12 weeks and 0.9 kg/m^2 at week 14. This effect of IGF-I on BMI was highly statistically significant versus glyburide at week 12 (p=0.019) and week 14 (p=0.0064). Therefore IGF-I had the ability to reduce BMI or directly affect the most widely accepted measure of obesity. […] This greater effect of low dose IGF-I was unexpected.

[4] = IGF-I 20 μg/kg BID, with glyburide or glyburide placebo per label
[5] = IGF-I 40 μg/kg BID, with glyburide or glyburide placebo per label
[6] = low dose IGF-I (20 μg/kg BID) alone
[7] = IGF-I 20 μg/kg, with glyburide or glyburide placebo per label
[8] = IGF-I 40 μg/kg, with glyburide or glyburide placebo per label
[9] = rhIGF-I 20 μg/kg BID SC, with glyburide 10 mg BID or glyburide placebo per label
[10] = rhIGF-I 40 μg/kg BID SC, with glyburide 10 mg BID or glyburide placebo per label
[11] = subjects treated with 20 micrograms of IGF-I
[12] = glyburide 10 mg BID + rhIGF-I placebo

IGF-I: recombinant human insulin-like growth factor-I from Genentech; sterile benzyl alcohol-preserved solution, 70 mg in 7 mL acetate/NaCl, pH 5.4; given SC
Weight Change (SE) Week 14 (Change in body weight [1]; [4]): −2.7 (0.6) kg
Weight Change (SE) Week 8 (Change in body weight [1]; [4]): −1.5 (0.6) kg
Weight Change (SE) Week 14 (Change in body weight [1]; [5]): −1.6 (0.5) kg
Weight Change (SE) Week 8 (Change in body weight [1]; [5]): −0.2 (0.5) kg
weight loss 2 weeks after treatment was stopped (Week 14) (Change in body weight [1]; [6]): 2.7 kg
weight lost on average, Week 8 (Change in body weight [1]; [6]): 1.5 kg
Change in TAT (%), mean (SEM) [2, 7]: −1.4 (3.7) %
Change in TAT, mean (SEM) [2, 7]: −1.2 (2.8) sq cm
Change in TAT (%), mean (SEM) [2, 8]: 3.9 (4.3) %
Change in TAT, mean (SEM) [2, 8]: 0.3 (4.3) sq cm
Hemoglobin A1c Change % from baseline, Week 8, Mean (SD) (hemoglobin A1c (HbA1c); [9]): −0.29 (0.8) %
Hemoglobin A1c Change % from baseline, Week 12, Mean (SD) (hemoglobin A1c (HbA1c); [9]): 0.13 (1.2) %
Hemoglobin A1c Change % from baseline, Week 4, Mean (SD) (hemoglobin A1c (HbA1c); [9]): −0.10 (0.6) %
Hemoglobin A1c Endpoint Change % from baseline, Mean (SD) (hemoglobin A1c (HbA1c); rhIGF-I 20 μg/kg BID SC, with glyburide 10 mg BID or placebo per label): 0.04 (0.9) %
Hemoglobin A1c Change % from baseline, Week 8, Mean (SD) (hemoglobin A1c (HbA1c); [10]): −0.47 (0.9) %
Hemoglobin A1c Change % from baseline, Week 12, Mean (SD) (hemoglobin A1c (HbA1c); [10]): −0.58% and −0.58 (1.2) %
Hemoglobin A1c Change % from baseline, Week 4, Mean (SD) (hemoglobin A1c (HbA1c); [10]): −0.37 (0.5) %
Hemoglobin A1c Endpoint Change % from baseline, Mean (SD) (hemoglobin A1c (HbA1c); rhIGF-I 40 μg/kg BID SC, with glyburide 10 mg BID or placebo per label): −0.30 (0.8) %
Weight Change (SE) Week 12 (Change in body weight [3]; [4]): −2.8 (0.7) kg
Weight Change (SE) Week 12 (Change in body weight [3]; [5]): −0.6 (0.7) kg
weight lost on average, Week 12 (Change in body weight [3]; [6]): 2.8 kg
BMI Change (SE) Wk 8 (Change in BMI; [4]): −0.5 (0.2) kg/m^2
BMI Change (SE) Wk 12 (Change in BMI; [4]): −1.0 (0.2) kg/m^2
BMI Change (SE) Wk 14 (Change in BMI; [4]): −0.9 (0.2) kg/m^2
BMI Change (SE) Wk 8 (Change in BMI; [5]): −0.1 (0.2) kg/m^2
BMI Change (SE) Wk 12 (Change in BMI; [5]): −0.2 (0.2) kg/m^2
BMI Change (SE) Wk 14 (Change in BMI; [5]): −0.6 (0.2) kg/m^2
BMI fell by, at 12 weeks (Change in BMI; [11]): 1.0 kg/m^2
BMI fell by, at week 14 (Change in BMI; [11]): 0.9 kg/m^2

COc1ccc(Cl)cc1C(=O)NCCc1ccc(S(=O)(=O)NC(=O)NC2CCCCC2)cc1 [Glyburide, glyburide, reference compound]
Weight Change (SE) Week 14 (Change in body weight [1]; [12]): 0.0 (0.8) kg
Weight Change (SE) Week 8 (Change in body weight [1]; [12]): −0.2 (0.4) kg
Change in TAT (%), mean (SEM) ([2]; glyburide active + IGF-I placebo): 2.5 (2.0) %
Change in TAT, mean (SEM) ([2]; glyburide active + IGF-I placebo, thigh CT, change from baseline): 1.0 (1.6) sq cm
Hemoglobin A1c Change % from baseline, Week 8, Mean (SD) (hemoglobin A1c (HbA1c); [12]): 0.05 (0.7) %
Hemoglobin A1c Change % from baseline, Week 12, Mean (SD) (hemoglobin A1c (HbA1c); [12]): 0.32% and 0.32 (0.7) %
Hemoglobin A1c Endpoint Change % from baseline, Mean (SD) (hemoglobin A1c (HbA1c); [12]): 0.12 (0.8) %
Hemoglobin A1c Change % from baseline, Week 4, Mean (SD) (hemoglobin A1c (HbA1c); [12]): −0.13 (0.5) %
Weight Change (SE) Week 12 (Change in body weight [3]; [12]): −0.1 (0.5) kg
BMI Change (SE) Wk 12 (Change in BMI; [12]): 0.0 (0.2) kg/m^2
BMI Change (SE) Wk 14 (Change in BMI; [12]): 0.0 (0.3) kg/m^2
BMI Change (SE) Wk 8 (Change in BMI; glyburide 10 mg BID + rhIGF-I placebo, change from Day 1): −0.1 (0.1) kg/m^2

From patent US7833964B2, “Methods of reducing visceral fat by increasing levels of insulin-like growth factor-I (IGF-I)” (Tercica, Inc., priority 2003, dated 2010)
